Assay results: US12534439B2, “Xanthohumol derivatives and methods for making and using” (Oregon State University, priority 2021, dated 2026)

What was measured:
HFD-fed C57BL/6J mice = assay: HFD feeding study: body weight, glucose tolerance test, plasma metabolic parameters; type: in vivo; conditions: for Final body weight: 11 weeks of HFD ± test compound; for Weight gain over the feeding period versus control HFD-fed mice: XP 30, XN 60 mg/kg body weight/day in HFD; for Glucose tolerance test (GTT) versus control: after 4 weeks of feeding, 6 hours fasting, 1.5 g/kg D-glucose i.p.; for Initial body weight: male mice, HFD ± test compound; for IL-6 / Insulin / MCP1 / PCSK9: plasma
Experimental: Animal Studies. All animal experiments were performed in accordance with institutional and National Health and Medical Research Council guidelines. The experimental protocol was approved by the Institutional Animal Care and Use Committee at Oregon State University and the studies were carried out in accordance with the approved protocol. Nine-week-old wildtype male C57BL/6J mice were obtained from Jackson Laboratory (Bar Harbor, ME, USA). Mice were single-housed in ventilated cages under a 12-12 h light-dark cycle and fed a HFD (Dyets Inc., Bethlehem, PA, USA) containing 60, 20, and 20% total calories from fat, carbohydrate, and protein, respectively. XN (99% purity, Hopsteiner Inc., New York, NY, USA) and XP (99% purity) were mixed into the diet at a concentration of 0.066% for XN and 0.033% for XP to reach respective doses of 60 mg/kg body weight/day and 30 mg/kg body weight/day. Studies included eight HFD-fed mice, eight XP-treated mice, and four XN-treated mice; food intake and body weights were recorded weekly. At week 4, glucose tolerance was tested after 6 hours fasting. Following intraperitoneal bolus injection of 1.5 g/kg of D-glucose, blood glucose levels were measured at 0, 15, 30, 60, and 120 minures using a One Touch UltraMini glucometer (LifeScan Inc., Milpitas, CA, USA). At the end of 11 weeks of feeding, mice were euthanized, and blood, liver, BAT, epididymal WAT, and cortex samples were collected for analyses.
Tris (pH=7.8) per gram of tissue. The homogenates were centrifuged at 10 000 g for 15 minutes at 4° C., and the supernatants were tested for ALT and AST activity using colorimetric assay kits purchased from Cayman Chemical (Ann Arbor, MI, USA). Triglycerides and total cholesterol were analyzed with commercially available kits (Cayman Chemical, Ann Arbor, MI, USA). Plasma glucose at week 11 was measured with a colorimetric assay, and plasma insulin, MCP-1, IL-6, and PCSK9 were analyzed by ELISA kits purchased from Abcam (Cambridge, UK).

C2Cl2 cells = assay: JC-1 mitochondrial membrane potential assay; type: cell-based, murine; conditions: compared with FCCP
Experimental: Mitochondrial respiration is coupled to ATP synthesis through an electrochemical proton gradient. Proton leak across the inner membrane results in depolarization of the mitochondrial transmembrane without deleteriously lowering the ATP synthesis. Proton leak can be mediated by UCPs and leads to the dissipation of the energy derived from substrate oxidation as heat. Considering the XP and XN effect on EE, the thermogenic activity was evaluated by assessing changes in UCP1 protein expression in the skeletal muscle, BAT, and WAT of HFD-fed mice. Unexpectedly, XP had no effect in UCP1 in the skeletal muscle, BAT, or WAT of HFD-fed mice (FIG. 18A). […] Therefore, the XP intrinsic protonophore properties were investigated by measured variations of mitochondrial membrane potential (ΔψM) in C2Cl2 cells stained with JC-1 dye. […]
Measure of Metabolic Activity. […] Metabolic measurements such as EE and respiratory exchange […] (calculated from the ratio of CO2 volume produced and O2 volume consumed) were measured. Motor activity and food intake were also recorded. […] JC-1 aggregates were detected with excitation and emission wavelengths of 540 and 570 nm. JC-1 monomers were detected with excitation and emission wavelengths of 485 and 535 nm on a BioTek Synergy HT plate reader.

Row | SMILES | IL-6 plasma level versus control (HFD-fed C57BL/6J mice; 11 weeks) | MCP-1/CCL2 plasma levels versus control (HFD-fed C57BL/6J mice; 11 weeks) | Plasma concentrations of PCSK9 versus control (HFD-fed C57BL/6J mice; 11 weeks) | Triglycerides (TG) and total cholesterol concentrations in plasma versus control (HFD-fed C57BL/6J mice; 11 weeks) | Final body weight (HFD-fed C57BL/6J mice; mean ± SEM) [g] | Fasting glucose (HFD-fed C57BL/6J mice; 11 weeks, mean ± SEM) [mg/dL] | Plasma TG (HFD-fed C57BL/6J mice; 11 weeks, mean ± SEM) [mg/dL] | Plasma cholesterol (HFD-fed C57BL/6J mice; 11 weeks, mean ± SEM) [mg/dL] | Weight gain over the feeding period versus control HFD-fed mice (HFD-fed C57BL/6J mice) | Glucose tolerance test (GTT) versus control (HFD-fed C57BL/6J mice) | Decrease of HOMA-IR (insulin resistance score) (HFD-fed C57BL/6J mice; after 11 weeks of feeding, versus control) [%] | Initial body weight (HFD-fed C57BL/6J mice; mean ± SEM) [g] | Fasting glucose a (HFD-fed C57BL/6J mice; measured at 4 weeks, mean ± SEM) [mg/dL] | IL-6 (HFD-fed C57BL/6J mice; 11 weeks, mean ± SEM) [pg/mL] | Insulin (HFD-fed C57BL/6J mice; 11 weeks, mean ± SEM) [μU/mL] | MCP1 (HFD-fed C57BL/6J mice; 11 weeks, mean ± SEM) [pg/mL] | PCSK9 (HFD-fed C57BL/6J mice; 11 weeks, mean ± SEM) [ng/mL] | Effect on JC-1 aggregates/monomers ratio (C2Cl2 cells) | Plasma TGs versus control (HFD-fed C57BL/6J mice; 11 weeks) | HOMA-IR (HFD-fed C57BL/6J mice; 11 weeks, mean ± SEM)
1 | COc1cc(O)c(CC=C(C)C)c(O)c1-c1cc(-c2ccc(O)cc2)n(C)n1 [XP, 4-(5-(4-hydroxyphenyl)-1-methyl-1H-pyrazol-3-yl)-5-methoxy-2-(3-methylbut-2-en-1-yl)benzene-1,3-diol] | not significantly different | not decreased | not affected | no changes | 37.87 ± 1.72 | 128.98 ± 7.18 | 81.81 ± 4.33 | 160.47 ± 4.73 | gained significantly less weight | improved glucose tolerance | 77.9 | 23.66 ± 0.70 | 143.62 ± 7.54 | 5.78 ± 2.04 | 34.36 ± 3.73 | 45.00 ± 4.68 | 217.166 ± 26.88 | dose-dependent and milder than that of protonophore FCCP | – | –
2 | COc1cc(O)c(CC=C(C)C)c(O)c1C(=O)/C=C/c1ccc(O)cc1 [XN, xanthohumol] | – | – | not affected | – | 44.25 ± 1.97 | 142.67 ± 6.29 | – | 170.88 ± 6.76 | no change in weight | no effect on glucose clearance | – | 26.37 ± 0.22 | – | 5.03 ± 3.3 | 71.17 ± 34.38 | 57.34 ± 15.74 | 215 ± 35.12 | dose-dependent and milder than that of protonophore FCCP | increase | 26.76 ± 13.47
